Data taken from PubChem BioAssay (NCI).
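All cell lines were grown in 96-well plates and treated with compound for 48 hours. GI50 = concentration required for 50% inhibition of growth. TGI: concentration producing complete growth inhibition.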

Assays:
Assay in all cases: NCI-60 cell line screen, 48 h
NCI-H23 lung = system: NCI-H23 lung
CAKI-1 renal = system: CAKI-1 renal
SN12C renal = system: SN12C renal
OVCAR-4 ovarian = system: OVCAR-4 ovarian
CCRF-CEM leukemia = system: CCRF-CEM leukemia
HCT-116 colon = system: HCT-116 colon
SF-539 CNS = system: SF-539 CNS
LOX IMVI melanoma = system: LOX IMVI melanoma
UACC-62 melanoma = system: UACC-62 melanoma
UO-31 renal = system: UO-31 renal
SF-268 CNS = system: SF-268 CNS
HS 578T breast = system: HS 578T breast
ACHN renal = system: ACHN renal
HOP-92 NSCLC = system: HOP-92 NSCLC
RXF 393 renal = system: RXF 393 renal
MALME-3M melanoma = system: MALME-3M melanoma
NCI-H522 lung = system: NCI-H522 lung
DU-145 prostate = system: DU-145 prostate
OVCAR-5 ovarian = system: OVCAR-5 ovarian
NCI-H226 lung = system: NCI-H226 lung
MCF7 breast = system: MCF7 breast
M14 melanoma = system: M14 melanoma
SNB-75 CNS = system: SNB-75 CNS
HCT-15 colon = system: HCT-15 colon
HOP-62 NSCLC = system: HOP-62 NSCLC
MDA-MB-435 = system: MDA-MB-435
IGROV1 ovarian = system: IGROV1 ovarian

COc1ccc2c(c1)/C(=C\c1c[nH]c3ccc(OC)cc13)C(=O)N2
GI50 (NCI-H23 lung): 4.46 µM
TGI (NCI-H23 lung): 21 µM
GI50 (CAKI-1 renal): 2.13 µM
TGI (CAKI-1 renal): 13.3 µM
GI50 (SN12C renal): 3.07 µM
TGI (SN12C renal): 12.6 µM
GI50 (OVCAR-4 ovarian): 3.5 µM
TGI (OVCAR-4 ovarian): 22.8 µM
GI50 (CCRF-CEM leukemia): 2.84 µM
TGI (CCRF-CEM leukemia): 9.33 µM
GI50 (HCT-116 colon): 2.45 µM
TGI (HCT-116 colon): 10.6 µM
GI50 (SF-539 CNS): 3.95 µM
TGI (SF-539 CNS): 15.6 µM
GI50 (LOX IMVI melanoma): 3.25 µM
TGI (LOX IMVI melanoma): 13.6 µM
GI50 (UACC-62 melanoma): 2.76 µM
TGI (UACC-62 melanoma): 11.3 µM
GI50 (UO-31 renal): 2.53 µM
TGI (UO-31 renal): 11.9 µM
GI50 (SF-268 CNS): 3.61 µM
TGI (SF-268 CNS): 15.3 µM
GI50 (HS 578T breast): 2.33 µM
TGI (HS 578T breast): 7.66 µM
GI50 (ACHN renal): 2.93 µM
TGI (ACHN renal): 12.4 µM
GI50 (HOP-92 NSCLC): 1.48 µM
TGI (HOP-92 NSCLC): 6.55 µM
GI50 (RXF 393 renal): 2.91 µM
TGI (RXF 393 renal): 9.6 µM
GI50 (MALME-3M melanoma): 8.52 µM
TGI (MALME-3M melanoma): 22.9 µM
GI50 (NCI-H522 lung): 2.27 µM
TGI (NCI-H522 lung): 7.76 µM
GI50 (DU-145 prostate): 4.72 µM
TGI (DU-145 prostate): 16.4 µM
GI50 (OVCAR-5 ovarian): 3.43 µM
TGI (OVCAR-5 ovarian): 13.2 µM
GI50 (NCI-H226 lung): 4.59 µM
TGI (NCI-H226 lung): 25.6 µM
GI50 (MCF7 breast): 2.65 µM
TGI (MCF7 breast): 13.1 µM
GI50 (M14 melanoma): 1.91 µM
TGI (M14 melanoma): 6.14 µM
GI50 (SNB-75 CNS): 1.94 µM
TGI (SNB-75 CNS): 9.22 µM
GI50 (HCT-15 colon): 2.97 µM
TGI (HCT-15 colon): 12.9 µM
GI50 (HOP-62 NSCLC): 2.72 µM
TGI (HOP-62 NSCLC): 12.5 µM
GI50 (MDA-MB-435): 0.877 µM
TGI (MDA-MB-435): 5.17 µM
GI50 (IGROV1 ovarian): 3.66 µM
TGI (IGROV1 ovarian): 17.1 µM
